27 compounds from patent publication US10239869B2, “Sulfonamide compounds as voltage-gated sodium channel modulators” (LUPIN LIMITED, priority 2015, dated 2019) can be followed below.

One data set addresses Nav 1.7 (Homo sapiens (Human), UniProt Q15858). Nature of the data set: Inhibition of sodium channels, Red Membrane Potential Dye FLIPR assay, veratridine depolarization. Type of data set: cell-based. The note with it: HEK-293 cells overexpressing the channel; for IC50: read-out: Nav1.7 IC50.
The next data set has as its target Nav 1.5 (Homo sapiens (Human), UniProt Q14524). The description is as above. The settings on record: HEK-293 cells overexpressing the channel; for inhibition at 10 µM: HEK-293 cells overexpressing Nav 1.5. Type of data set: cell-based.
The mark [1] stands for this setting: read-out: Nav1.5 IC50 (bound given in μM).

SMILES strings stand for the structures. Like-named read-outs stand apart in the source and are kept apart here. Where only a bound is given, the exact number is not on record here.

Sequence of Nav 1.5 (Q14524 whole entry): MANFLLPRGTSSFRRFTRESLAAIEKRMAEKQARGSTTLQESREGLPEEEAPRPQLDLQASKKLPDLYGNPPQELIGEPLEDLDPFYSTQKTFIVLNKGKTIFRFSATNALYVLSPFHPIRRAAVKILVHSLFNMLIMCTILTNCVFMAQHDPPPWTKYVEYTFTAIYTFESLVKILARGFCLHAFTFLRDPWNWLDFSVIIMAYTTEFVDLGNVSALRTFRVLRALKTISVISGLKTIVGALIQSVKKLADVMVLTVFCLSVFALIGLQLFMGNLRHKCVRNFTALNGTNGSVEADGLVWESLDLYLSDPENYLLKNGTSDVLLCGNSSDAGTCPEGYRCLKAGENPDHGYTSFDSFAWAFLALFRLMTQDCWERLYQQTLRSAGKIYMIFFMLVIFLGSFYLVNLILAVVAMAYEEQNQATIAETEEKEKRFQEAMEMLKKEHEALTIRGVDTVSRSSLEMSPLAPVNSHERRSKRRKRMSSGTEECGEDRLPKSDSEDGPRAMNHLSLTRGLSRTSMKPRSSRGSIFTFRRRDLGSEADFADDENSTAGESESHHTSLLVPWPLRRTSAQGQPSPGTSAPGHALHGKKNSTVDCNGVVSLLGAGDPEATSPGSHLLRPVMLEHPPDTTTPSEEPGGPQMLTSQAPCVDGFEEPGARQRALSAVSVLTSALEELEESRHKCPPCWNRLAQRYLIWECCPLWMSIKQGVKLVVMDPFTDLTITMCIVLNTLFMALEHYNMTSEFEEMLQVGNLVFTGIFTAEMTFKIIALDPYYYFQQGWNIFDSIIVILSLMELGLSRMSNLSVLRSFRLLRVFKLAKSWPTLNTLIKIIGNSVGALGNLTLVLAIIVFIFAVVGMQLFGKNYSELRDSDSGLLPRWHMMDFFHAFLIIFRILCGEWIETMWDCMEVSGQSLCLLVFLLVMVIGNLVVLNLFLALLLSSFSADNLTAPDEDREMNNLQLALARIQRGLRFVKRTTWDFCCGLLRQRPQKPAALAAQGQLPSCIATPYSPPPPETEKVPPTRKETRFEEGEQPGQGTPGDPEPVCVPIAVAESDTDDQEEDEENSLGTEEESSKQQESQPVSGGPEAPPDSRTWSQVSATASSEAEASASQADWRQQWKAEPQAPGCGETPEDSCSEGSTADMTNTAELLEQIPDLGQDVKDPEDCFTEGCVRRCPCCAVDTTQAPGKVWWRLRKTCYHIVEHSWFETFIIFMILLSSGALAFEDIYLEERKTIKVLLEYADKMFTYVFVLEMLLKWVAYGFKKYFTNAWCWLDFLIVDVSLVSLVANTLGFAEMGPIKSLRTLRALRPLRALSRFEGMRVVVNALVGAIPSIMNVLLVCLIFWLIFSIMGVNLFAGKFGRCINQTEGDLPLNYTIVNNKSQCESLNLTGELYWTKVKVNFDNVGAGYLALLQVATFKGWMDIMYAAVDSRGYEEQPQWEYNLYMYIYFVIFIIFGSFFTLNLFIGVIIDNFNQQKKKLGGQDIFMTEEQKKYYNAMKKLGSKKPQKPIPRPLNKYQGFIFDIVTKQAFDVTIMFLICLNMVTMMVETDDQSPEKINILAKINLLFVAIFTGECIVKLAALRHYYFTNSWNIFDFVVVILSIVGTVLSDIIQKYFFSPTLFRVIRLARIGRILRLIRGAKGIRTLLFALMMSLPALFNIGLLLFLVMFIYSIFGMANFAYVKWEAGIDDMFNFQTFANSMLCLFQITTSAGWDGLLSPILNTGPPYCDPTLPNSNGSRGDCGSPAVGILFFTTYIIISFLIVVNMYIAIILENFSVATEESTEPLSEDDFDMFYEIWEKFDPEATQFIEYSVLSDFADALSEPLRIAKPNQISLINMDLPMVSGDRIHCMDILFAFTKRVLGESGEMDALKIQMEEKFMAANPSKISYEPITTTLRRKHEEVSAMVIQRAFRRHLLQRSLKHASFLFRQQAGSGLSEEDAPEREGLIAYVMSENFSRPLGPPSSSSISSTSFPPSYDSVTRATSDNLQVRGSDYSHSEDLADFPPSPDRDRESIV
Sequence of Nav 1.7 (Q15858 whole entry): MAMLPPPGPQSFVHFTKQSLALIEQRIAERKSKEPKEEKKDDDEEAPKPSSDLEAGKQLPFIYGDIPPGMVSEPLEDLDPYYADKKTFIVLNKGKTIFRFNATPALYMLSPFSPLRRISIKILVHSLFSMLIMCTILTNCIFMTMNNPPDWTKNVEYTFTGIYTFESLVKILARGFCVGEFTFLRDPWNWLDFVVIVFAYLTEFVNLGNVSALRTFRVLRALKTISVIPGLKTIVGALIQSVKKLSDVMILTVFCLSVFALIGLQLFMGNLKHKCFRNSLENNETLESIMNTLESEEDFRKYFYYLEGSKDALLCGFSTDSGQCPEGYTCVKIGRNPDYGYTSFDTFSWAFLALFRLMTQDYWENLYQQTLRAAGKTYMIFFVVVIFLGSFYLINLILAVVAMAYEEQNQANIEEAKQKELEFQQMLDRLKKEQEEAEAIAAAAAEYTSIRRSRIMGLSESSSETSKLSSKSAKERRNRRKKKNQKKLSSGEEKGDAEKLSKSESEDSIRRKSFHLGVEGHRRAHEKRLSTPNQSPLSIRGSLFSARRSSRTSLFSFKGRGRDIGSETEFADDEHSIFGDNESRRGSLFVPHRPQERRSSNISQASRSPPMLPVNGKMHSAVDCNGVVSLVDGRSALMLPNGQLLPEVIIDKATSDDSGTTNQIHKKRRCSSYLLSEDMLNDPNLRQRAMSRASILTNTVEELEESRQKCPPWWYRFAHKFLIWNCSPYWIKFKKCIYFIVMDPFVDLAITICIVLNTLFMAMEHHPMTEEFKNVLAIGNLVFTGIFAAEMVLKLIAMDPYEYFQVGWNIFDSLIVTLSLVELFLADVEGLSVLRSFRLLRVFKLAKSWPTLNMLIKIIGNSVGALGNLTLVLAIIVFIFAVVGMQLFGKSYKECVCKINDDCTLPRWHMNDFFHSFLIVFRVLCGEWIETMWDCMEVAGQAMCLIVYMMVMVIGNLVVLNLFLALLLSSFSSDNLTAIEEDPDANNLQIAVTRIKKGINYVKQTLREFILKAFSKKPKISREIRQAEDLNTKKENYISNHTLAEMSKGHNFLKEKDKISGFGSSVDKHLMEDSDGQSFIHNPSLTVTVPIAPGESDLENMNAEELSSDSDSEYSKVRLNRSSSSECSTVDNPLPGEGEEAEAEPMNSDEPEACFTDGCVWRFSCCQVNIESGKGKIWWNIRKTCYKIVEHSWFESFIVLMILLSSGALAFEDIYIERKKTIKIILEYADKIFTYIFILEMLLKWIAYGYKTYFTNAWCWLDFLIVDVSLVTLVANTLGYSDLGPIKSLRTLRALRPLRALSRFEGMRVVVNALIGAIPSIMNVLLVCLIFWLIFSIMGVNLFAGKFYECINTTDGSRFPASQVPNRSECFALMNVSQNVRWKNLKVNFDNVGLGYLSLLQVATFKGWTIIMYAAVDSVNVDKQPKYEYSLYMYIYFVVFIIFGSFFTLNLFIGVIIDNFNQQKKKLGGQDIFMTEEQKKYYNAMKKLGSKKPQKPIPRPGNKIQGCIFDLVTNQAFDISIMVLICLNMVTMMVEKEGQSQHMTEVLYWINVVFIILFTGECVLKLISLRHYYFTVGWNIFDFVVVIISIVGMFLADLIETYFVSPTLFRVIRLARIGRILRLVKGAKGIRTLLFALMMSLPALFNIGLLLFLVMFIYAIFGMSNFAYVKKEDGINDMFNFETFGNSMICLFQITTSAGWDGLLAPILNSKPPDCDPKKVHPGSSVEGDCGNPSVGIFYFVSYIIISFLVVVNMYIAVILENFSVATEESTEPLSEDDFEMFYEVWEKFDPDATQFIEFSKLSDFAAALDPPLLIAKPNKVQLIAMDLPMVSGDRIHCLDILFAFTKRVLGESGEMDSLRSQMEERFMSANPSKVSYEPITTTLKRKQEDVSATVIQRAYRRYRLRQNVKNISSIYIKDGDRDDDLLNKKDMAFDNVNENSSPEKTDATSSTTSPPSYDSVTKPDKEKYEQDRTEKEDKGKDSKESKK

For orientation: IC50 means the concentration needed to halve the response being measured. With `CCOc1ccc(-c2cc(C(F)(F)F)ccc2[C@H]2CCOc3cc(S(=O)(=O)Nc4ncccn4)ccc32)cn1` (racemic) [Example 103, (R/S)-4-(2-(6-ethoxypyridin-3-yl)-4-(trifluoromethyl)phenyl)-N-(pyrimidin-2-yl)chroman-7-sulfonamide], the IC50 at Nav 1.7 is 10 nM; on Nav 1.5 (read-out: Nav1.5 IC50), 0.932 µM.
In the case of `Cn1nccc1-c1cc(C(F)(F)F)ccc1[C@H]1CCOc2cc(S(=O)(=O)Nc3ncccc3F)ccc21` [Example 18, (S&R)—N-(3-Fluoropyridin-2-yl)-4-(2-(1-methyl-1H-pyrazol-5-yl)-4-(trifluoromethyl)phenyl)chromane-7-sulfonamide], the IC50 at Nav 1.7 is 759 nM; at Nav 1.5 (setting [1]) it was more than 10 µM.
As to `Cc1nc(-c2cc(C(F)(F)F)ccc2[C@H]2CCOc3cc(S(=O)(=O)Nc4cccnn4)ccc32)co1` [Example 80, (S&R)-4-(2-(2-methyloxazol-4-yl)-4-(trifluoromethyl)phenyl)-N-(pyridazin-3-yl)chroman-7-sulfonamide], the IC50 on Nav 1.7 came out at 114 nM. On Nav 1.5, the “Nav1.5 % inhibition @ 10 μM” value is on record as 53%.
`CS(=O)(=O)CCc1cc(C(F)(F)F)ccc1[C@H]1CCOc2cc(S(=O)(=O)Nc3ccncn3)ccc21` [Example 88, (S&R)-4-(2-(2-(Methylsulfonyl)ethyl)-4-(trifluoromethyl)phenyl)-N-(pyrimidin-4-yl) chroman-7-sulfonamide]: the concentration for half-maximal inhibition (IC50) at Nav 1.7 was 626 nM; on Nav 1.5 (setting [1]) it was more than 10 µM.
As to `O=S(=O)(Nc1cccnn1)c1ccc2c(c1)OCC[C@@H]2c1ccc(C(F)(F)F)cc1CCCF` (racemic) [Example 161, (R/S)-4-(2-(3-fluoropropyl)-4-(trifluoromethyl)phenyl)-N-(pyridazin-3-yl)chroman-7-sulfonamide], the IC50 came out at 12 nM at Nav 1.7 and 1.35 µM on Nav 1.5 (read-out: Nav1.5 IC50).
Regarding `COCCc1cc(C(F)(F)F)ccc1[C@H]1CCOc2cc(S(=O)(=O)Nc3ccncn3)ccc21` (racemic) [Example 138, (R/S)-4-(2-(2-methoxyethyl)-4-(trifluoromethyl)phenyl)-N-(pyrimidin-4-yl)chroman-7-sulfonamide], the half-inhibitory concentration (IC50) on Nav 1.7 was 588 nM; at Nav 1.5 (setting [1]), more than 10 µM.
For orientation: inhibition means how much of the control response was suppressed. Low values mean little suppression, high ones strong suppression. As for `O=S(=O)(Nc1ncc(F)cn1)c1ccc2c(c1)OCC[C@@H]2c1ccc(C(F)(F)F)cc1O[C@H]1CCOC1` (racemic) [Example-182, (S/R)—N-(5-fluoropyrimidin-2-yl)-4-(2-(((S)-tetrahydrofuran-3-yl)oxy)-4-(trifluoromethyl)phenyl)chroman-7-sulfonamide], the IC50 at Nav 1.7 turned out to be 55 nM. The same compound registered an inhibition at 10 µM at Nav 1.5 of 30%.
The like results for `O=S(=O)(Nc1ccncn1)c1ccc2c(c1)OCC[C@@H]2c1ccc(C(F)(F)F)cc1CCC(F)F` (racemic) [Example-213, (R/S)-4-(2-(3,3-difluoropropyl)-4-(trifluoromethyl)phenyl)-N-(pyrimidin-4-yl)chroman-7-sulfonamide] were, in that order, 34 nM and 65%.
In the case of `COCCCc1cc(C(F)(F)F)ccc1[C@H]1CCOc2cc(S(=O)(=O)Nc3cccnn3)ccc21` (racemic) [Example 144, (R/S)-4-(2-(3-methoxypropyl)-4-(trifluoromethyl)phenyl)-N-(pyridazin-3-yl)chroman-7-sulfonamide], the half-maximal inhibitory concentration (IC50) at Nav 1.7 came out at 86 nM; on Nav 1.5 (read-out: Nav1.5 IC50) it was 2.68 µM.
Regarding `Cc1ccnc(NS(=O)(=O)c2ccc3c(c2)OCC[C@H]3c2ccc(C(F)(F)F)cc2-c2ccnn2C)n1` [Example 29, (S&R)-4-(2-(1-methyl-1H-pyrazol-5-yl)-4-(trifluoromethyl)phenyl)-N-(4-methylpyrimidin-2-yl)chroman-7-sulfonamide], the “Nav1.7 inhibition @ 10 μM” value on Nav 1.7 (10 μM) worked out at 91%. In addition, the IC50 at Nav 1.5 (setting [1]) is more than 10 µM.
As for `O=S(=O)(Nc1cccc(F)n1)c1ccc2c(c1)OCC[C@H]2c1ccc(C(F)(F)F)cc1OC1CCOCC1` [Example-176, (R&S)—N-(6-fluoropyridin-2-yl)-4-(2-((tetrahydro-2H-pyran-4-yl)oxy)-4-(trifluoromethyl)phenyl)chroman-7-sulfonamide], the IC50 on Nav 1.7 was 1310 nM. For the same compound, on Nav 1.5, the “Nav1.5 % inhibition @ 10 μM” value is 57%.
In the case of `O=S(=O)(Nc1ccncn1)c1ccc2c(c1)OCC[C@H]2c1ccc(C(F)(F)F)cc1OC1CCOCC1` [Example-172, (R&S)—N-(pyrimidin-4-yl)-4-(2-((tetrahydro-2H-pyran-4-yl)oxy)-4-(trifluoromethyl)phenyl)chroman-7-sulfonamide], the IC50 is 2740 nM on Nav 1.7 and more than 10 µM at Nav 1.5 (setting [1]).
The like results for `CCCc1cc(C(F)(F)F)ccc1[C@@H]1CCOc2cc(S(=O)(=O)Nc3ncccn3)ccc21` [Example-238, (S&R)-4-(2-propyl-4-(trifluoromethyl)phenyl)-N-(pyrimidin-2-yl)chroman-7-sulfonamide] were, in that order, 1760 nM and more than 10 µM.
The like results for `O=S(=O)(Nc1ncc(F)cn1)c1ccc2c(c1)OCC[C@@H]2c1ccc(C(F)(F)F)cc1Cl` (racemic) [Example 105, (S/R)-4-(2-Chloro-4-(trifluoromethyl)phenyl)-N-(5-fluoropyrimidin-2-yl)chroman-7-sulfonamide] were, in that order, 1510 nM and more than 10 µM.
The like results for `O=S(=O)(Nc1cccc(F)n1)c1ccc2c(c1)OCC[C@H]2c1ccc(C(F)(F)F)cc1-n1cccn1` [Example 89, (S&R)-4-(2-(1H-pyrazol-1-yl)-4-(trifluoromethyl)phenyl)-N-(6-fluoropyridin-2-yl)chroman-7-sulfonamide] were, in that order, 108 nM and more than 10 µM.
In the case of `O=S(=O)(Nc1cccc(F)n1)c1ccc2c(c1)OCC[C@@H]2c1ccc(C(F)(F)F)cc1-c1nccs1` (racemic) [Example 96, (R/S)—N-(6-fluoropyridin-2-yl)-4-(2-(thiazol-2-yl)-4-(trifluoromethyl)phenyl)chroman-7-sulfonamide], the IC50 at Nav 1.7 came out at 8 nM. Further, the inhibition at 10 µM on Nav 1.5 is 70%.
For the compound `O=S(=O)(Nc1ncc(F)cn1)c1ccc2c(c1)OCC[C@@H]2c1ccc(C(F)(F)F)cc1CCCF` (racemic) [Example 159, (R/S)-4-(2-(3-fluoropropyl)-4-(trifluoromethyl)phenyl)-N-(5-fluoropyrimidin-2-yl)chroman-7-sulfonamide], the figures for the concentration for half-maximal inhibition (IC50) at Nav 1.7 and on Nav 1.5 (read-out: Nav1.5 IC50) were 10 nM and 0.943 µM, respectively.
For `COc1cc(C(F)(F)F)ccc1[C@H]1CCOc2cc(S(=O)(=O)Nc3cccc(F)n3)ccc21` [Example-229, (S&R)—N-(6-fluoropyridin-2-yl)-4-(2-methoxy-4-(trifluoromethyl)phenyl)chroman-7-sulfonamide], at Nav 1.7, the IC50 came out at 156 nM. Further, the “Nav1.5 % inhibition @ 10 μM” value at Nav 1.5 was 42%.
On to `O=C1CCCN1c1cc(C(F)(F)F)ccc1[C@H]1CCOc2cc(S(=O)(=O)Nc3ncc(F)cn3)ccc21` [Example 114, (S&R)—N-(5-fluoropyrimidin-2-yl)-4-(2-(2-oxopyrrolidin-1-yl)-4-(trifluoromethyl)phenyl)chroman-7-sulfonamide], for which the half-maximal inhibitory concentration (IC50) on Nav 1.7 was 624 nM; at Nav 1.5 (setting [1]), more than 10 µM.
Regarding `O=C1CCCN1c1cc(C(F)(F)F)ccc1[C@H]1CCOc2cc(S(=O)(=O)Nc3cccc(F)n3)ccc21` [Example 112, (S&R)—N-(6-Fluoropyridin-2-yl)-4-(2-(2-oxopyrrolidin-1-yl)-4-(trifluoromethyl)phenyl)chroman-7-sulfonamide], the concentration for half-maximal inhibition (IC50) on Nav 1.7 was 801 nM. Besides, at Nav 1.5, the “Nav1.5 % inhibition @ 10 μM” value is reported as 65%.
Take `O=S(=O)(Nc1cccnn1)c1ccc2c(c1)OCC[C@@H]2c1ccc(C(F)(F)F)cc1CCCCF` (racemic) [Example 166, (R/S)-4-(2-(4-fluorobutyl)-4-(trifluoromethyl)phenyl)-N-(pyridazin-3-yl)chroman-7-sulfonamide]: the half-maximal inhibitory concentration (IC50) at Nav 1.7 stood at 50 nM; at Nav 1.5 (read-out: Nav1.5 IC50), 0.134 µM.
In the case of `O=S(=O)(Nc1cccnn1)c1ccc2c(c1)OCC[C@@H]2c1ccc(C(F)(F)F)cc1-c1ccc(F)nc1` [Example 42, (S&R)-4-(2-(6-Fluoropyridin-3-yl)-4-(trifluoromethyl)phenyl)-N-(pyridazin-3-yl)chromane-7-sulfonamide], the IC50 came to 0.2 nM on Nav 1.7 and 0.644 µM on Nav 1.5 (read-out: Nav1.5 IC50).
On to `COCCc1cc(C(F)(F)F)ccc1[C@H]1CCOc2cc(S(=O)(=O)Nc3cccnn3)ccc21` (racemic) [Example 139, (R/S)-4-(2-(2-methoxyethyl)-4-(trifluoromethyl)phenyl)-N-(pyridazin-3-yl)chroman-7-sulfonamide], for which the 50% inhibitory concentration (IC50) on Nav 1.7 was 33 nM; on Nav 1.5 (setting [1]), more than 10 µM.
Regarding `COCCCCc1cc(C(F)(F)F)ccc1[C@H]1CCOc2cc(S(=O)(=O)Nc3cccc(F)n3)ccc21` [Example 152, (S&R)—N-(6-fluoropyridin-2-yl)-4-(2-(4-methoxybutyl)-4-(trifluoromethyl)phenyl)chroman-7-sulfonamide], the IC50 on Nav 1.7 was 40 nM. Besides, the “Nav1.5 % inhibition @ 10 μM” value on Nav 1.5 worked out at 67%.
In the case of `O=S(=O)(Nc1ncccn1)c1ccc2c(c1)OCC[C@H]2c1ccc(C(F)(F)F)cc1C1CCOCC1` [Example 109, (S&R)—N-(pyrimidin-2-yl)-4-(2-(tetrahydro-2H-pyran-4-yl)-4-(trifluoromethyl)phenyl)chroman-7-sulfonamide], the IC50 on Nav 1.7 was 740 nM; on Nav 1.5 (setting [1]), more than 10 µM.
Take `O=S(=O)(Nc1ncccn1)c1ccc2c(c1)OCC[C@@H]2c1ccc(C(F)(F)F)cc1CCF` (racemic) [Example 153, (R/S)-4-(2-(2-fluoroethyl)-4-(trifluoromethyl)phenyl)-N-(pyrimidin-2-yl)chroman-7-sulfonamide]: on Nav 1.7, the half-inhibitory concentration (IC50) stood at 39 nM. Moreover, the inhibition at 10 µM at Nav 1.5 was 35%.
The like results for `Cc1nc(-c2cc(C(F)(F)F)ccc2[C@H]2CCOc3cc(S(=O)(=O)Nc4ncc(F)cn4)ccc32)ccc1F` (racemic) [Example-223, (R/S)-4-(2-(5-fluoro-6-methylpyridin-2-yl)-4-(trifluoromethyl)phenyl)-N-(5-fluoropyrimidin-2-yl)chroman-7-sulfonamide] were, in that order, 82 nM and 33%.
